Results taken from ChEMBL document CHEMBL1131814, “Structure-activity relationship of N-methyl-N-aralkyl-peptidylamines as novel N-type calcium channel blockers” (Bioorg Med Chem Lett, 1999).

What was measured:
Mus musculus [1] = experiment: Percentage of protection from audiogenic tonic seizures in DBA/2 mice after intravenous administration at a dose of 30 mg/kg; type: functional
[2] = molecular target: Voltage-dependent N-type calcium channel subunit alpha-1B (Homo sapiens, UniProt Q00975); experiment: Inhibition of N-type calcium channels in IMR-32 human neuroblastoma cells; type: cell-based
Chain of Voltage-dependent N-type calcium channel subunit alpha-1B (Q00975 whole entry): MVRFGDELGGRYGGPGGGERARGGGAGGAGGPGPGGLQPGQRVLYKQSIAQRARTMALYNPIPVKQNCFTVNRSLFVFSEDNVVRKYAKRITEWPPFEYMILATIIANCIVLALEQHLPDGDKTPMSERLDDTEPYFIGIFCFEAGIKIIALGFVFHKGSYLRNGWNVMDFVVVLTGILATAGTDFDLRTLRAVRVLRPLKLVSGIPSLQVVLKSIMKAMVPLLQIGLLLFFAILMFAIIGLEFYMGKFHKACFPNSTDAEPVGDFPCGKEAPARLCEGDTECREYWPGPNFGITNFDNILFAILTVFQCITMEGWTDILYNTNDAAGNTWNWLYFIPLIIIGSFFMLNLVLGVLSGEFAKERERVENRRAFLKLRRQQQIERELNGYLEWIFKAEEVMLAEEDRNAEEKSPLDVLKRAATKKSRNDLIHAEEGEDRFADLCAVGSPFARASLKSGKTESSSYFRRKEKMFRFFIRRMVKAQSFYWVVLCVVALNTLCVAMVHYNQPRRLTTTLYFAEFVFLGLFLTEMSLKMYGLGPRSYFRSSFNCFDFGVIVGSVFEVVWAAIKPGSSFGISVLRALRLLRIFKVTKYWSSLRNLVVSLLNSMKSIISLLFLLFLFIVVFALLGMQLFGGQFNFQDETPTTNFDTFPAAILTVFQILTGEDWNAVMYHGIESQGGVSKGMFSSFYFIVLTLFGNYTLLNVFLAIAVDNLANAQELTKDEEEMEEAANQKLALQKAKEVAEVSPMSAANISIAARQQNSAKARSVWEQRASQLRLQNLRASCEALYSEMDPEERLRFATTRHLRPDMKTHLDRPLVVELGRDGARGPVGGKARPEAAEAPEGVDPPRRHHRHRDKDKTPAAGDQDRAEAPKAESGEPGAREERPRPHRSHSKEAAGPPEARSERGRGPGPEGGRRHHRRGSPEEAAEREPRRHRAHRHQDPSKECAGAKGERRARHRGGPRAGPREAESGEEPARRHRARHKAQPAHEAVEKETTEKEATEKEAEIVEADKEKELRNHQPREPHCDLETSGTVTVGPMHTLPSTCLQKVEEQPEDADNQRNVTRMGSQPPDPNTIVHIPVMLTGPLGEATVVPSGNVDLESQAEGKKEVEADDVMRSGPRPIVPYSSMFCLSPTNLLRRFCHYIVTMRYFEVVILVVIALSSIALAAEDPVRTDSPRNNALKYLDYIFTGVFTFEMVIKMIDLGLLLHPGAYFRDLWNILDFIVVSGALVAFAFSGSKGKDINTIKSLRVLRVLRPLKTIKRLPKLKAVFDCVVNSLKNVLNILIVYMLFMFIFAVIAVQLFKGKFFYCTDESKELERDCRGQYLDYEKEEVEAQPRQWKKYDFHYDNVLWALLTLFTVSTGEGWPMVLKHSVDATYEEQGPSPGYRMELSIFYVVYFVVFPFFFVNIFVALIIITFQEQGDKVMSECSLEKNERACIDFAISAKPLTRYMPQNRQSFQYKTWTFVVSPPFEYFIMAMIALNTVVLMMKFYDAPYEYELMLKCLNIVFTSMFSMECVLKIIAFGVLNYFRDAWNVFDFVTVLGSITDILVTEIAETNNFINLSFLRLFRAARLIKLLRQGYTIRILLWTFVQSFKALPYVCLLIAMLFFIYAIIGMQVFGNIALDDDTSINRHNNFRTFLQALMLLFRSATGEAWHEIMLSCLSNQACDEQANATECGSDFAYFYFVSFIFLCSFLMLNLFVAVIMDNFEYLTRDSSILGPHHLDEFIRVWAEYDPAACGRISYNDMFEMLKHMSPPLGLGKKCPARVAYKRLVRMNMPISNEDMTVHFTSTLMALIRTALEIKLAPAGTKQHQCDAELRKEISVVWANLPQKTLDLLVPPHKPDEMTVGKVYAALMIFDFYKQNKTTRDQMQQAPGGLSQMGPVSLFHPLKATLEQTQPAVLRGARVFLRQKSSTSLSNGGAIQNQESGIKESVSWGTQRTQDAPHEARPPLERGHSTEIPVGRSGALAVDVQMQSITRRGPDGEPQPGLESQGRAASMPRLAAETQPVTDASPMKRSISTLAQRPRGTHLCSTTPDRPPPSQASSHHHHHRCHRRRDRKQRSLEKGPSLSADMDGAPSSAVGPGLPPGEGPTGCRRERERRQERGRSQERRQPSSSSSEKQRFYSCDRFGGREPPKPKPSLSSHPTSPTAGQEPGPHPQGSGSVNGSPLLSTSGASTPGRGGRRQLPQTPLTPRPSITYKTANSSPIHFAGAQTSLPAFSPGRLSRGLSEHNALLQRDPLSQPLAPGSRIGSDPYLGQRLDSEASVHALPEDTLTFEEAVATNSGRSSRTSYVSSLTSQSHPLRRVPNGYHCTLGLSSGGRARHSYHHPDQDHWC

Mus musculus [3] = experiment: Percentage of protection from audiogenic tonic seizures in DBA/2 mice after intravenous administration at a dose of 10 mg/kg; type: functional

SMILES | Protection (Mus musculus [1]) [%] | IC50 [2] [nM] | Protection (Mus musculus [3]) [%]
CC(C)C[C@@H](C(=O)N[C@@H](Cc1ccc(OC(=O)c2ccccc2)cc1)C(=O)NC(C)(C)C)N(C)Cc1ccco1 | 60 | 1600 | –
CC(C)C[C@@H](C(=O)N[C@@H](Cc1ccc(OC(=O)c2ccccc2)cc1)C(=O)NC(C)(C)C)N(C)Cc1ccc(Cl)cc1 | – | 230 | –
CC(C)C[C@@H](C(=O)N[C@@H](Cc1ccc(OC(=O)c2ccccc2)cc1)C(=O)NC(C)(C)C)N(C)Cc1ccccc1 | – | 360 | –
CC(C)C[C@@H](C(=O)N[C@@H](Cc1ccc(OC(=O)c2ccccc2)cc1)C(=O)NC(C)(C)C)N(C)Cc1ccc(C(C)(C)C)cc1 | 60 | 36 | –
CC(C)C[C@@H](C(=O)N[C@@H](Cc1ccc(OC(=O)c2ccccc2)cc1)C(=O)NC(C)(C)C)N(C)Cc1ccc(O)cc1 | – | 1000 | –
CC(C)C[C@@H](C(=O)N[C@@H](Cc1ccc(OC(=O)c2ccccc2)cc1)C(=O)NC(C)(C)C)N(C)Cc1cccnc1 | – | 1700 | –
CC(C)C[C@@H](C(=O)N[C@@H](Cc1ccc(OC(=O)c2ccccc2)cc1)C(=O)NC(C)(C)C)N(C)CCc1ccccc1 | – | 1700 | –
COc1ccc(CN(C)[C@@H](CC(C)C)C(=O)N[C@@H](Cc2ccc(OC(=O)c3ccccc3)cc2)C(=O)NC(C)(C)C)cc1 | 100 | 500 | 40
CC(C)C[C@@H](C(=O)N[C@@H](Cc1ccc(OC(=O)c2ccccc2)cc1)C(=O)NC(C)(C)C)N(C)CC1CCCCC1 | 100 | 680 | 20
CC(C)C[C@@H](C(=O)N[C@@H](Cc1ccc(OC(=O)c2ccccc2)cc1)C(=O)NC(C)(C)C)N(C)Cc1ccc(Br)cc1 | – | 130 | –
CC(C)C[C@@H](C(=O)N[C@@H](Cc1ccc(OC(=O)c2ccccc2)cc1)C(=O)NC(C)(C)C)N(C)CCCc1ccccc1 | – | 1900 | –
CC(C)C[C@@H](C(=O)N[C@@H](Cc1ccc(OC(=O)c2ccccc2)cc1)C(=O)NC(C)(C)C)N(C)Cc1ccccc1Cl | – | 560 | –
CC(C)C[C@@H](C(=O)N[C@@H](Cc1ccc(OC(=O)c2ccccc2)cc1)C(=O)NC(C)(C)C)N(C)Cc1ccc(N(C)C)cc1 | 80 | 280 | –
CC(C)C[C@@H](C(=O)N[C@@H](Cc1ccc(OC(=O)c2ccccc2)cc1)C(=O)NC(C)(C)C)N(C)Cc1cccc(Cl)c1 | – | 1000 | –
